Measurements as given in ChEMBL document CHEMBL2074530, “Interaction of ivermectin with multidrug resistance proteins (MRP1, 2 and 3)” (Chem Biol Interact, 2006).

Molecular target: Multidrug resistance-associated protein 1 (Homo sapiens, UniProt P33527)
Test: TP_TRANSPORTER: inhibition of BODIPY-ivermectin transport in HL60-MRP1 cells
Type: functional, cell-based

Chain of Multidrug resistance-associated protein 1 (P33527 whole entry): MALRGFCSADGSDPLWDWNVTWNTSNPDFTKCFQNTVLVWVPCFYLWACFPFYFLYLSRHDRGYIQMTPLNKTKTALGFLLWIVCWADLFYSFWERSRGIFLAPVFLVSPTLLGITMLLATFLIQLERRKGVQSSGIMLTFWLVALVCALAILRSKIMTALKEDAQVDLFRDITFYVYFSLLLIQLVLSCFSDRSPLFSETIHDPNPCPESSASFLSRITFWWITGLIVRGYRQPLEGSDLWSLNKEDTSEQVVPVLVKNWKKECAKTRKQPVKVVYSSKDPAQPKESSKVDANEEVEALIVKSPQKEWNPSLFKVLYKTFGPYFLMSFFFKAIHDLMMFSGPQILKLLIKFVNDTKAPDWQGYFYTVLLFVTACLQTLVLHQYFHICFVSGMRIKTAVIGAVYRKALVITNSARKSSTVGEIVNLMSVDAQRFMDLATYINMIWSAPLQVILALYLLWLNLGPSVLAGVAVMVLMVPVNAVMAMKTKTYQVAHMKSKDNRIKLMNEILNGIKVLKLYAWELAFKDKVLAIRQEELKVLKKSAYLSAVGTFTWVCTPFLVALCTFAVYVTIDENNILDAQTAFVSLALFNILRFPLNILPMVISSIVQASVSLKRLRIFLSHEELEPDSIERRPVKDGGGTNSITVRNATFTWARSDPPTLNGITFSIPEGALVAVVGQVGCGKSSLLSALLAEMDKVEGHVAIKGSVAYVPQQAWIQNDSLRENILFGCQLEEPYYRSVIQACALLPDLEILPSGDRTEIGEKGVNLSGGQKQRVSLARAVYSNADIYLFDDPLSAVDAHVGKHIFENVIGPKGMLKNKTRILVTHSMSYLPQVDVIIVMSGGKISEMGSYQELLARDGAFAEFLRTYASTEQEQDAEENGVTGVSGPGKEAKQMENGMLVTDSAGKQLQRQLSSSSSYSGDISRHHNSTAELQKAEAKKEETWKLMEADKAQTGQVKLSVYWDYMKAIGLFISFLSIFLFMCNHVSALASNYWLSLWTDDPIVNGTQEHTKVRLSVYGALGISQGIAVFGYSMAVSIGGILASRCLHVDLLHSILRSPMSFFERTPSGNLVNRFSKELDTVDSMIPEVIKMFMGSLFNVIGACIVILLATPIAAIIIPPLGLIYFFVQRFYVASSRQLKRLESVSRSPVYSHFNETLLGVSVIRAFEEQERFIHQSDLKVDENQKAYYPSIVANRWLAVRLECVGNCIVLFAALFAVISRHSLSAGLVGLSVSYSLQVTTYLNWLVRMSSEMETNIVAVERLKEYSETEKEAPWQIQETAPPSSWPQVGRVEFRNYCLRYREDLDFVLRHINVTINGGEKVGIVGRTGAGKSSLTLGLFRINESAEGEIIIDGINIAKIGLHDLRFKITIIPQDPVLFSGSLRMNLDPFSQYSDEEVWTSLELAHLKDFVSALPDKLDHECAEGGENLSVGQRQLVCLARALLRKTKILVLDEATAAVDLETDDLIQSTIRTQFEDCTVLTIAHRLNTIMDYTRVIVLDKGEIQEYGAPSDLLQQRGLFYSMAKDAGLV

For IVERMECTIN, the Activity was “inhibitor [+]”.
